Assays:
Assay type in all cases: functional
[1] = tested on: Citrobacter; assay: Antimicrobial activity against Citrobacter with derepressed AmpC beta-lactamsae assessed as resistant isolate by broth microdilution method
[2] = tested on: Enterobacter cloacae; assay: Antimicrobial activity against Enterobacter cloacae with nonderepressed AmpC beta-lactamsae assessed as resistant isolate by broth microdilution method
[3] = tested on: Proteus mirabilis; assay: Antimicrobial activity against Proteus mirabilis assessed as resistant isolate by broth microdilution method
[4] = tested on: Klebsiella pneumoniae; assay: Antimicrobial activity against Klebsiella pneumoniae assessed as resistant isolate by broth microdilution method
[5] = tested on: Acinetobacter; assay: Antimicrobial activity against imipenem susceptible Acinetobacter assessed as intermediate isolate by broth microdilution method in presence of Tazobactam
[6] = tested on: Enterobacteriaceae; assay: Antimicrobial activity against ceftazidime-susceptible Enterobacteriaceae by broth microdilution method in presence of Tazobactam
[7] = tested on: Pseudomonas aeruginosa; assay: Antimicrobial activity against imipenem susceptible Pseudomonas aeruginosa assessed as intermediate isolate by broth microdilution method in presence of Tazobactam
[8] = tested on: Klebsiella pneumoniae; assay: Antimicrobial activity against Non-ESBL Klebsiella pneumoniae by broth microdilution method in presence of Tazobactam
[9] = tested on: Enterobacteriaceae; assay: Antimicrobial activity against ceftazidime-susceptible Enterobacteriaceae assessed as intermediate isolate by broth microdilution method in presence of Tazobactam
[10] = tested on: Pseudomonas aeruginosa; assay: Antimicrobial activity against imipenem non-susceptible Pseudomonas aeruginosa assessed as resistant isolate by broth microdilution method in presence of Tazobactam
[11] = tested on: Acinetobacter; assay: Antimicrobial activity against imipenem susceptible Acinetobacter by broth microdilution method in presence of Tazobactam
[12] = tested on: Klebsiella pneumoniae; assay: Antimicrobial activity against ESBL producing Klebsiella pneumoniae by broth microdilution method in presence of Tazobactam
[13] = tested on: Serratia marcescens; assay: Antimicrobial activity against ceftazidime susceptible Serratia marcescens by broth microdilution method in presence of Tazobactam
[14] = tested on: Escherichia coli; assay: Antimicrobial activity against Non-ESBL Escherichia coli assessed as susceptible isolate by broth microdilution method in presence of Tazobactam

CC(C)(O/N=C(\C(=O)N[C@@H]1C(=O)N2C(C(=O)[O-])=C(C[n+]3ccccc3)CS[C@H]12)c1csc(N)n1)C(=O)O [CEFTAZIDIME]
Activity [1]: 100% | Activity [2]: 5.7%

C[C@@H](O)[C@H]1C(=O)N2C(C(=O)O)=C(SCCNC=N)C[C@H]12 [IMIPENEM ANHYDROUS]
Activity [3]: 0.2%

C[C@@H](O)[C@H]1C(=O)N2C(C(=O)O)=C(S[C@@H]3CN[C@H](C(=O)N(C)C)C3)[C@H](C)[C@H]12 [MEROPENEM]
Activity [4]: 0.3%

CCN1CCN(C(=O)N[C@@H](C(=O)N[C@@H]2C(=O)N3[C@@H]2SC(C)(C)[C@@H]3C(=O)O)c2ccccc2)C(=O)C1=O [PIPERACILLIN]
Activity [5]: 18.1% | MIC50 [6]: 4 µg/mL | MIC90 [6]: 8 µg/mL | Activity [7]: 0% | MIC50 [8]: 4 µg/mL | MIC90 [8]: 16 µg/mL | Activity [9]: 2.3% | Activity [10]: 27.1% | MIC50 [11]: 16 µg/mL | MIC90 [11]: > 128 µg/mL | MIC50 [12]: > 128 µg/mL | MIC90 [12]: > 128 µg/mL | MIC50 [13]: 4 µg/mL | MIC90 [13]: 16 µg/mL | Activity [14]: 93.6%
